Test results reported in patent US5583155A, “6-amino-1,2-benzopyrones useful for treatment of viral diseases” (Octamer, Inc., priority 1994, dated 1996).
“And” between values parts separate entries of the source, which are not always exact repeats. Identical values can stand only once.

Experiments:
ADPRT [1] = conditions: Proc. Nat. Acad. Sci. (USA), 84:1107 (1987); cited from earlier work
ADPRT [2] = assay: Binding to ADPRT; conditions: 6-nitroso oxidation product
CMV = conditions: cited from earlier work
oris DNA of HSV-1 = assay: Nitrocellulose filter binding to HSV-1 oris DNA; conditions: input oris DNA 8,000/sample
Method: This example illustrates HSV DNA binding at the site of replication (oris) initiation at ADPRT.
The 230 bp XbaI-HindIII oris DNA of HSV-1 was isolated from plasmid pKC4 and radioactively labeled with [32P]dCTP by fill-in reaction with the Klenow form of E. coli DNA polymerase. Labeled DNA fragments were purified as previously described in J. Virol., 63:2773 (1989).
Nitrocellulose filters (Schleicher and Schuell, BA 85, […] pore size, 27 mm diameter) were presoaked for 60 minutes in binding buffer (250 mM Tris-Cl, pH 8.0, 100 mM MgCl2, 1000 mM NaCl, 0.6 mM DTT, 0.1 mg/ml BSA, 0.1 mM PMSF and 0.1 mM TLCK). 5 ul of [32P] oris DNA was added to 210 ul of cold binding buffer and incubated for 1 minute. 2 ul of either ADPRT (200 ng) or HSV-1 infected Vero cell extract (Vero(F), 2 ug) was then added to the DNA solution and incubated for 10 minutes at 25° C. Samples were transferred to ice, followed by filtration through the nitrocellulose filters. The filters were then washed four times with cold wash buffer containing 25 mM Tris-Cl, pH 8.0, 10 mM MgCl2, 0.5 mM DTT, 100 mM NaCl, 5% DMSO. The filters were dried and the amount of radioactive material bound to the filters was determined by scintillation spectrophotometry.

O=c1ccc2ccccc2o1 [1,2-benzopyrone]
inhibition of ADPRT (ADPRT [1]): inhibitory ligand

O=Nc1ccc2oc(=O)ccc2c1 [6-NBP, 6-nitroso-1,2-benzopyrone]
binding to zinc-fingers of ADPRT (ADPRT [2]): binds specifically and with high affinity

Nc1nc2c(ncn2COCCO)c(=O)[nH]1 [acyclovir]
CMV sensitivity (CMV): CMV is resistant to acyclovir

ADPRT
% Specific Bound (oris DNA of HSV-1): 78.6% and ~80%
CPM Bound to Filter (oris DNA of HSV-1; average of duplicate samples): 6384 CPM
